Reference: patent US20200368247A1, “CENICRIVIROC FOR THE TREATMENT OF FIBROSIS” (Tobira Therapeutics, Inc., priority 2014, published 2020)

Assay: Study 202 treatment-emergent laboratory abnormalities (DAIDS grade)
Format: in vivo, human
Conditions: for AST increased, Grade 3 / AST increased, Grade 4 / Any Grade 3 laboratory abnormality / Any Grade 3 or Grade 4 laboratory abnormality / Any Grade 4 laboratory abnormality / Aspartate aminotransferase (AST) increased (Grade 3 or 4) / CPK increased, Grade 3 / CPK increased, Grade 4 / Creatine phosphokinase (CPK) increased (Grade 3 or 4) / Fibrinogen decreased (Grade 3 or 4) / Fibrinogen decreased, Grade 3 / Fibrinogen decreased, Grade 4 / Hemoglobin decreased (Grade 3 or 4) / Hemoglobin decreased, Grade 3 / Hemoglobin decreased, Grade 4 / Neutrophils decreased (Grade 3 or 4) / Neutrophils decreased, Grade 3 / Neutrophils decreased, Grade 4 / Phosphate decreased (Grade 3 or 4) / Phosphate decreased, Grade 3 / Phosphate decreased, Grade 4: through Week 48
Source text: The 12th subject (Subject 42001) had 2 consecutive CPK elevations (Grade 3 followed by Grade 4) that returned to normal values while continuing treatment at a subsequent visit. None of the CPK elevations were associated with clinical symptoms; no subjects discontinued due to CPK elevations and there were no differences in AEs related to musculoskeletal disorders between the CVC and EFV arms.
The number of subjects with graded treatment-emergent laboratory abnormalities in selected liver parameters of interest is shown in Table 34. No Grade 4 ALT or AST elevations were observed. Except for one Grade 3 AST elevation, all ALT and AST elevations were Grade 1 or Grade 2. […] All abnormalities in bilirubin were Grade 1 or Grade 2. […]

[1] = All CVC (N = 115), EFV (N = 28)

CCCCOCCOc1ccc(-c2ccc3c(c2)/C=C(/C(=O)Nc2ccc([S@@+]([O-])Cc4cncn4CCC)cc2)CCCN3CC(C)C)cc1 [CVC, (S)-8-[4-(2-Butoxyethoxy)phenyl]-1-isobutyl-N-(4-{[(1-propyl-1H-imidazol-5-yl)methyl]sulfinyl}phenyl)-1,2,3,4-tetrahydro-1-benzazocine-5-carboxamide]
Aspartate aminotransferase (AST) abnormality, any worst grade [1]: 21 (18%) n (%)
Bilirubin abnormality, any worst grade [1]: 7 (6%) n (%)
Bilirubin abnormality, worst Grade 1 [1]: 3 (3%) n (%)
Bilirubin abnormality, worst Grade 2 [1]: 4 (3%) n (%)
Bilirubin abnormality, worst Grade 3 [1]: 0 n (%)
Bilirubin abnormality, worst Grade 4 [1]: 0 n (%)
AST increased, Grade 3 [1]: 1 (<1%) n (%)
AST increased, Grade 4 [1]: 0 n (%)
Any Grade 3 laboratory abnormality [1]: 13 (11%) n (%)
Any Grade 3 or Grade 4 laboratory abnormality [1]: 19 (17%) n (%)
Any Grade 4 laboratory abnormality [1]: 6 (5%) n (%)
Aspartate aminotransferase (AST) increased (Grade 3 or 4) [1]: 1 (<1%) n (%)
CPK increased, Grade 3 [1]: 8 (7%) n (%)
CPK increased, Grade 4 [1]: 4 (3%) n (%)
Creatine phosphokinase (CPK) increased (Grade 3 or 4) [1]: 12 (10%) n (%)
Fibrinogen decreased (Grade 3 or 4) [1]: 2 (2%) n (%)
Fibrinogen decreased, Grade 3 [1]: 2 (2%) n (%)
Fibrinogen decreased, Grade 4 [1]: 0 n (%)
Hemoglobin decreased (Grade 3 or 4) [1]: 1 (<1%) n (%)
Hemoglobin decreased, Grade 3 [1]: 0 n (%)
Hemoglobin decreased, Grade 4 [1]: 1 (<1%) n (%)
Neutrophils decreased (Grade 3 or 4) [1]: 2 (2%) n (%)
Neutrophils decreased, Grade 3 [1]: 2 (2%) n (%)
Neutrophils decreased, Grade 4 [1]: 0 n (%)
Phosphate decreased (Grade 3 or 4) [1]: 4 (3%) n (%)
Phosphate decreased, Grade 3 [1]: 4 (3%) n (%)
Phosphate decreased, Grade 4 [1]: 0 n (%)
Any graded (Grade 1-4) laboratory abnormality, % (CVC 100 mg): 88%
Worst Grade 1 laboratory abnormality, % (CVC 100 mg): 36%
Worst Grade 2 laboratory abnormality, % (CVC 100 mg): 40%
Worst Grade 3 laboratory abnormality, % (CVC 100 mg): 7%
Worst Grade 4 laboratory abnormality, % (CVC 100 mg): 5%
AST increased, Grade 4 (CVC 100 mg (N = 38)): 0 n (%)
Any Grade 3 or Grade 4 laboratory abnormality (CVC 100 mg (N = 38)): 7 (12%) n (%)
Any Grade 4 laboratory abnormality (CVC 100 mg (N = 38)): 3 (5%) n (%)
Aspartate aminotransferase (AST) increased (Grade 3 or 4) (CVC 100 mg (N = 38)): 1 (2%) n (%)
CPK increased, Grade 4 (CVC 100 mg (N = 38)): 1 (2%) n (%)
Creatine phosphokinase (CPK) increased (Grade 3 or 4) (CVC 100 mg (N = 38)): 3 (5%) n (%)
Fibrinogen decreased (Grade 3 or 4) (CVC 100 mg (N = 38)): 0 n (%)
Fibrinogen decreased, Grade 3 (CVC 100 mg (N = 38)): 0 n (%)
Fibrinogen decreased, Grade 4 (CVC 100 mg (N = 38)): 0 n (%)
Hemoglobin decreased (Grade 3 or 4) (CVC 100 mg (N = 38)): 1 (2%) n (%)
Hemoglobin decreased, Grade 3 (CVC 100 mg (N = 38)): 0 n (%)
Hemoglobin decreased, Grade 4 (CVC 100 mg (N = 38)): 1 (2%) n (%)
Neutrophils decreased (Grade 3 or 4) (CVC 100 mg (N = 38)): 2 (3%) n (%)
Neutrophils decreased, Grade 3 (CVC 100 mg (N = 38)): 2 (3%) n (%)
Neutrophils decreased, Grade 4 (CVC 100 mg (N = 38)): 0 n (%)
Phosphate decreased (Grade 3 or 4) (CVC 100 mg (N = 38)): 2 (3%) n (%)
Phosphate decreased, Grade 3 (CVC 100 mg (N = 38)): 2 (3%) n (%)
Phosphate decreased, Grade 4 (CVC 100 mg (N = 38)): 0 n (%)
ALT abnormality, worst Grade 1 (CVC 100 mg (N = 58)): 4 (7%) n (%)
ALT abnormality, worst Grade 2 (CVC 100 mg (N = 58)): 3 (5%) n (%)
ALT abnormality, worst Grade 3 (CVC 100 mg (N = 58)): 0 n (%)
ALT abnormality, worst Grade 4 (CVC 100 mg (N = 58)): 0 n (%)
AST abnormality, worst Grade 1 (CVC 100 mg (N = 58)): 8 (14%) n (%)
AST abnormality, worst Grade 2 (CVC 100 mg (N = 58)): 2 (3%) n (%)
AST abnormality, worst Grade 3 (CVC 100 mg (N = 58)): 1 (2%) n (%)
AST abnormality, worst Grade 4 (CVC 100 mg (N = 58)): 0 n (%)
Alanine aminotransferase (ALT) abnormality, any worst grade (CVC 100 mg (N = 58)): 7 (12%) n (%)
Aspartate aminotransferase (AST) abnormality, any worst grade (CVC 100 mg (N = 58)): 11 (19%) n (%)
Bilirubin abnormality, any worst grade (CVC 100 mg (N = 58)): 4 (7%) n (%)
Bilirubin abnormality, worst Grade 1 (CVC 100 mg (N = 58)): 1 (2%) n (%)
Bilirubin abnormality, worst Grade 2 (CVC 100 mg (N = 58)): 3 (5%) n (%)
Bilirubin abnormality, worst Grade 3 (CVC 100 mg (N = 58)): 0 n (%)
Bilirubin abnormality, worst Grade 4 (CVC 100 mg (N = 58)): 0 n (%)
AST increased, Grade 3 (CVC 100 mg (N = 58)): 1 (2%) n (%)
Any Grade 3 laboratory abnormality (CVC 100 mg (N = 58)): 4 (7%) n (%)
CPK increased, Grade 3 (CVC 100 mg (N = 58)): 2 (3%) n (%)
Any graded (Grade 1-4) laboratory abnormality, % (CVC 200 mg): 96%
Worst Grade 1 laboratory abnormality, % (CVC 200 mg): 28%
Worst Grade 2 laboratory abnormality, % (CVC 200 mg): 47%
Worst Grade 3 laboratory abnormality, % (CVC 200 mg): 16%
Worst Grade 4 laboratory abnormality, % (CVC 200 mg): 5%
ALT abnormality, worst Grade 1 (CVC 200 mg (N = 57)): 6 (11%) n (%)
ALT abnormality, worst Grade 2 (CVC 200 mg (N = 57)): 2 (4%) n (%)
ALT abnormality, worst Grade 3 (CVC 200 mg (N = 57)): 0 n (%)
ALT abnormality, worst Grade 4 (CVC 200 mg (N = 57)): 0 n (%)
AST abnormality, worst Grade 1 (CVC 200 mg (N = 57)): 6 (11%) n (%)
AST abnormality, worst Grade 2 (CVC 200 mg (N = 57)): 4 (7%) n (%)
AST abnormality, worst Grade 3 (CVC 200 mg (N = 57)): 0 n (%)
AST abnormality, worst Grade 4 (CVC 200 mg (N = 57)): 0 n (%)
Alanine aminotransferase (ALT) abnormality, any worst grade (CVC 200 mg (N = 57)): 8 (14%) n (%)
Aspartate aminotransferase (AST) abnormality, any worst grade (CVC 200 mg (N = 57)): 10 (18%) n (%)
Bilirubin abnormality, any worst grade (CVC 200 mg (N = 57)): 3 (5%) n (%)
Bilirubin abnormality, worst Grade 1 (CVC 200 mg (N = 57)): 2 (4%) n (%)
Bilirubin abnormality, worst Grade 2 (CVC 200 mg (N = 57)): 1 (2%) n (%)
Bilirubin abnormality, worst Grade 3 (CVC 200 mg (N = 57)): 0 n (%)
Bilirubin abnormality, worst Grade 4 (CVC 200 mg (N = 57)): 0 n (%)
AST increased, Grade 3 (CVC 200 mg (N = 57)): 0 n (%)
AST increased, Grade 4 (CVC 200 mg (N = 57)): 0 n (%)
Any Grade 3 laboratory abnormality (CVC 200 mg (N = 57)): 9 (16%) n (%)
Any Grade 3 or Grade 4 laboratory abnormality (CVC 200 mg (N = 57)): 12 (21%) n (%)
Any Grade 4 laboratory abnormality (CVC 200 mg (N = 57)): 3 (5%) n (%)
Aspartate aminotransferase (AST) increased (Grade 3 or 4) (CVC 200 mg (N = 57)): 0 n (%)
CPK increased, Grade 3 (CVC 200 mg (N = 57)): 6 (11%) n (%)
CPK increased, Grade 4 (CVC 200 mg (N = 57)): 3 (5%) n (%)
Creatine phosphokinase (CPK) increased (Grade 3 or 4) (CVC 200 mg (N = 57)): 9 (16%) n (%)
Fibrinogen decreased (Grade 3 or 4) (CVC 200 mg (N = 57)): 2 (4%) n (%)
Fibrinogen decreased, Grade 3 (CVC 200 mg (N = 57)): 2 (4%) n (%)
Fibrinogen decreased, Grade 4 (CVC 200 mg (N = 57)): 0 n (%)
Hemoglobin decreased (Grade 3 or 4) (CVC 200 mg (N = 57)): 0 n (%)
Hemoglobin decreased, Grade 3 (CVC 200 mg (N = 57)): 0 n (%)
Hemoglobin decreased, Grade 4 (CVC 200 mg (N = 57)): 0 n (%)
Neutrophils decreased (Grade 3 or 4) (CVC 200 mg (N = 57)): 0 n (%)
Neutrophils decreased, Grade 3 (CVC 200 mg (N = 57)): 0 n (%)
Neutrophils decreased, Grade 4 (CVC 200 mg (N = 57)): 0 n (%)
Phosphate decreased (Grade 3 or 4) (CVC 200 mg (N = 57)): 2 (4%) n (%)
Phosphate decreased, Grade 3 (CVC 200 mg (N = 57)): 2 (4%) n (%)
Phosphate decreased, Grade 4 (CVC 200 mg (N = 57)): 0 n (%)
